Test results: patent publication US20080009418A1, “Selective Inhibitors” (Alchemia LTD., priority 2004, published 2008)

Experiments:
Human δ-opioid (DOP) = target: T1, Human δ-opioid (DOP) (Homo sapiens, UniProt P41143); assay: Radioligand binding, human δ-opioid (DOP) membranes, FlashPlate, [3H]-Bremazocine; conditions: compound at 10 μM, [3H]-Bremazocine
T1 construct: purchased Perkin Elmer Biosignal
Method in brief: (§1)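 Cloned human receptor membranes were coated onto FlashPlate wells and incubated with radioligand and compound (added from a 0.5 mM DMSO daughter plate) for 1 hour at room temperature in the dark. Scintillation counting gave percent inhibition, with DMSO defining total and reference ligand defining non-specific binding.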

Human κ-Opioid (KOP) = target: T2, Human κ-Opioid (KOP) (Homo sapiens, UniProt P41145); assay: Radioligand binding, human κ-opioid (KOP) membranes, filtration, [3H]-Diprenorphine; conditions: compound at 10 μM, [3H]-Diprenorphine
T2 construct: purchased Perkin Elmer Biosignal
Method in brief: (§2)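 Percent inhibition of radioligand binding measured on recombinant human membranes: NK1 with [125I]-Substance P, KOP with [3H]-Diprenorphine. Incubation 1 h at room temperature, then harvest onto 0.3% PEI-soaked filters, cold Tris-HCl pH 7.4 washes and scintillation counting; non-specific binding from reference ligand wells.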

Human Melanocortin (MC3) = target: T3, Human Melanocortin (MC3) (Homo sapiens, UniProt P41968); assay: Radioligand binding, human melanocortin MC3 membranes, FlashPlate, [125I]-NDP-αMSH; conditions: compound at 10 μM, [125I]-NDP-αMSH
T3 construct: purchased Perkin Elmer Biosignal
Method in brief: as §1

Human Melanocortin (MC4) = target: T4, Human Melanocortin (MC4) (Homo sapiens, UniProt P32245); assay: Radioligand binding, human melanocortin MC4 membranes, FlashPlate, [125I]-NDP-αMSH; conditions: compound at 10 μM, [125I]-NDP-αMSH
T4 construct: purchased Perkin Elmer Biosignal
Method in brief: as §1

Human melanocortin (MC5) = target: T5, Human melanocortin (MC5) (Homo sapiens, UniProt P33032); assay: Radioligand binding, human melanocortin MC5 membranes, FlashPlate, [125I]-NDP-αMSH; conditions: compound at 10 μM, [125I]-NDP-αMSH
T5 construct: purchased Perkin Elmer Biosignal
Method in brief: as §1

[1] = target: T6, Human melanin-concentrating hormone (MCH1) (Homo sapiens, UniProt Q99705); assay: Radioligand binding, human melanin-concentrating hormone MCH1 membranes, FlashPlate, [125I]-S36057; conditions: compound at 10 μM
T6 construct: purchased Perkin Elmer Biosignal
Method in brief: as §1

Human μ-opioid (MOP) = target: T7, Human μ-opioid (MOP) (Homo sapiens, UniProt P35372); assay: Radioligand binding, human μ-opioid (MOP) membranes, FlashPlate, [3H]-Naloxone; conditions: compound at 10 μM, [3H]-Naloxone
T7 construct: purchased Perkin Elmer Biosignal
Method in brief: as §1

Human neurokinin (NK1) = target: T8, Human neurokinin (NK1) (Homo sapiens, UniProt P25103); assay: Radioligand binding, human neurokinin NK1 membranes, filtration, [125I]-Substance P; conditions: compound at 10 μM, [125I]-Substance P
T8 construct: purchased Perkin Elmer Biosignal
Method in brief: as §2

[2] = target: T9, Human neuropeptide Y (NPY-Y1) (Homo sapiens, UniProt P25929); assay: Radioligand binding, human neuropeptide Y NPY-Y1 membranes, FlashPlate, [125I]-PYY; conditions: compound at 10 μM, [125I]-PYY
T9 construct: purchased Perkin Elmer Biosignal
T9 sequence (P25929 1-384): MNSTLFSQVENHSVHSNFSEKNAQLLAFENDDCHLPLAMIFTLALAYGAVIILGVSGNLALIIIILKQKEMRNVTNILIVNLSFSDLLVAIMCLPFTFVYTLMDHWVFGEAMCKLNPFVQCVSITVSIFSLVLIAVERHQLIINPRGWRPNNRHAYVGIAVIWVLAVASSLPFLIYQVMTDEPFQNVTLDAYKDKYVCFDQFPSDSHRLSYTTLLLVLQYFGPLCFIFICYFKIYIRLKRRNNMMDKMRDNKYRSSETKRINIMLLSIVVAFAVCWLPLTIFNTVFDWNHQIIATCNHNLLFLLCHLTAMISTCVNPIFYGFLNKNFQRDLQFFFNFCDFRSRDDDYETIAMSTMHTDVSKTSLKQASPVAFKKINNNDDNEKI
Method in brief: as §1

Human opioid (ORL1) = target: T10, Human opioid (ORL1) (Homo sapiens, UniProt P41146); assay: Radioligand binding, human opioid ORL1 membranes, FlashPlate, [125I]-Nociceptin; conditions: compound at 10 μM, [125I]-Nociceptin
T10 construct: purchased Perkin Elmer Biosignal
Method in brief: as §1

Mouse urotensin (mUR2) = target: T11, Mouse urotensin (mUR2) (Mus musculus, UniProt Q8VIH9); assay: Radioligand binding, mouse urotensin mUR2 membranes, FlashPlate, [125I]-Urotensin II; conditions: compound at 10 μM, [125I]-Urotensin II
T11 construct: purchased Perkin Elmer Biosignal
T11 sequence (Q8VIH9 1-385): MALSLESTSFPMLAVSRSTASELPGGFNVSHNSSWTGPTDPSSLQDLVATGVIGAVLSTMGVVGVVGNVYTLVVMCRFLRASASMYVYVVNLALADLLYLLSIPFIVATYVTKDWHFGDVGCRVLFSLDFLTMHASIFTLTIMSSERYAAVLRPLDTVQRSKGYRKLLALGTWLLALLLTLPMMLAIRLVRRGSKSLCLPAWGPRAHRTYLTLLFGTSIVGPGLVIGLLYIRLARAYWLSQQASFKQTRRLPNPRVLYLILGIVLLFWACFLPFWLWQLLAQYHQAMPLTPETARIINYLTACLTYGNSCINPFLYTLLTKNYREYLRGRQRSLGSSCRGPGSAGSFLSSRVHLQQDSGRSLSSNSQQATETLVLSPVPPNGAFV
Method in brief: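 Cloned mouse urotensin (mUR2) receptor membranes from Perkin Elmer Biosignal were immobilized in FlashPlate microplates using a proprietary coating. Each well got 19.5 μl buffer, then 0.5 μl of DMSO, reference ligand, or compound. Adding 5 μl of [125I]-Urotensin II, diluted to 5× final concentration in binding buffer, started binding. Plates were sealed with TopSeal-A and incubated 1 hour at room temperature in the dark. Wells were counted for 30 seconds each on a TopCount after a 60-second delay, and percentage inhibition was calculated.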

T10 sequence (P41146 whole entry): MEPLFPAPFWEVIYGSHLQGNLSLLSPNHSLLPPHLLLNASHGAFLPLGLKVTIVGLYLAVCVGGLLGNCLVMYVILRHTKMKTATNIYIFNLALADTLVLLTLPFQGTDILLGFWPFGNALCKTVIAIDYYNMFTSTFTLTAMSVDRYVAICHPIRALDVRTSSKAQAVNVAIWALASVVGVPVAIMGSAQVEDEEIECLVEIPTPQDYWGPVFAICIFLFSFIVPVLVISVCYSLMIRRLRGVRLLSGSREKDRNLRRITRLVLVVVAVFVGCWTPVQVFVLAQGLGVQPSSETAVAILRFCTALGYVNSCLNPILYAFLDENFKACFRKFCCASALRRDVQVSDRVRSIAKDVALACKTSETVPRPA
T2 sequence (P41145 whole entry): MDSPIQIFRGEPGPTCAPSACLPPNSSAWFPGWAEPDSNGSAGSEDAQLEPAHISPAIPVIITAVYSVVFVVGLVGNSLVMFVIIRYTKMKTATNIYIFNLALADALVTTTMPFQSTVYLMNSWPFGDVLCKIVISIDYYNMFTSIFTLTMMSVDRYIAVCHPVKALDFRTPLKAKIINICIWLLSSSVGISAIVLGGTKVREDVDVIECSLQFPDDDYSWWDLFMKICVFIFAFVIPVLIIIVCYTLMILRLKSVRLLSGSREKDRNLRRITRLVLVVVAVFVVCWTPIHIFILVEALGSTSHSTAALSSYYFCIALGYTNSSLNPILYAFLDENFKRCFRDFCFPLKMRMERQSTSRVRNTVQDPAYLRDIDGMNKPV
T8 sequence (P25103 whole entry): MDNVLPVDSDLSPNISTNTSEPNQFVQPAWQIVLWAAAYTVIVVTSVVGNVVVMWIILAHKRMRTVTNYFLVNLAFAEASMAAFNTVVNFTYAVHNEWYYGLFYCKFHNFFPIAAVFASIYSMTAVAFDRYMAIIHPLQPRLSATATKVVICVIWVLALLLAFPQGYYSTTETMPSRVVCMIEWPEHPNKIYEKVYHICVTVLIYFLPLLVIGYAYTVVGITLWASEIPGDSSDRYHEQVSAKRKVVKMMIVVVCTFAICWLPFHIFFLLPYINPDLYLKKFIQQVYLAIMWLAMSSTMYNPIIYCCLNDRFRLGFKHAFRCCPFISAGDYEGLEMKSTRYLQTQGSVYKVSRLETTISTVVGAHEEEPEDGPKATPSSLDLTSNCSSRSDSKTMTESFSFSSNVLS
T7 sequence (P35372 whole entry): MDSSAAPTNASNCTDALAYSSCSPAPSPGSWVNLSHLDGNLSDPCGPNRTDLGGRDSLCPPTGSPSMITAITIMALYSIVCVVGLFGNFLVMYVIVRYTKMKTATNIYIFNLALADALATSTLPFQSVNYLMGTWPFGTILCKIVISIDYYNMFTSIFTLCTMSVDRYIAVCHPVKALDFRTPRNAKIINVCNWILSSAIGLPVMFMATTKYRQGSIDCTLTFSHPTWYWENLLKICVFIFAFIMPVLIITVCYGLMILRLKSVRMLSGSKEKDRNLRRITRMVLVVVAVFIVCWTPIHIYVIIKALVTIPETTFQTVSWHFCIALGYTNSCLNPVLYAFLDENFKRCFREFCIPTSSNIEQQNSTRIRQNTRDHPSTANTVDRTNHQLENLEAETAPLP
T5 sequence (P33032 whole entry): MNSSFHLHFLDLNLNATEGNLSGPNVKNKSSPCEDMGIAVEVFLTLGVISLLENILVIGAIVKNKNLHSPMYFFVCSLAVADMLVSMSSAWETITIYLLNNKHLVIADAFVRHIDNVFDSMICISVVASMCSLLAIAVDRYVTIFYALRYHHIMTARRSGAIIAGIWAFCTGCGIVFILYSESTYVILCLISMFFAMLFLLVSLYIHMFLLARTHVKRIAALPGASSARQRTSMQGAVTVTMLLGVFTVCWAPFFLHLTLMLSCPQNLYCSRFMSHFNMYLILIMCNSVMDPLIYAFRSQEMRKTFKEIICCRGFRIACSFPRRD
T6 sequence (Q99705 whole entry): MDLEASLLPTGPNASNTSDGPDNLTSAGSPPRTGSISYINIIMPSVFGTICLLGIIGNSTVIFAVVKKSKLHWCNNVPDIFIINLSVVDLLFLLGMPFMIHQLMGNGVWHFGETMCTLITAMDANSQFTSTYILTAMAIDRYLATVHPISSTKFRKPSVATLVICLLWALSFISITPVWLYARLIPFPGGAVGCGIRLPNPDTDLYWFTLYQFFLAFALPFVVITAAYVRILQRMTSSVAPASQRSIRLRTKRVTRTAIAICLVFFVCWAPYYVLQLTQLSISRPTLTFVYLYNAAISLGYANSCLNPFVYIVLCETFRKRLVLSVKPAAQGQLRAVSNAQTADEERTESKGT
T1 sequence (P41143 whole entry): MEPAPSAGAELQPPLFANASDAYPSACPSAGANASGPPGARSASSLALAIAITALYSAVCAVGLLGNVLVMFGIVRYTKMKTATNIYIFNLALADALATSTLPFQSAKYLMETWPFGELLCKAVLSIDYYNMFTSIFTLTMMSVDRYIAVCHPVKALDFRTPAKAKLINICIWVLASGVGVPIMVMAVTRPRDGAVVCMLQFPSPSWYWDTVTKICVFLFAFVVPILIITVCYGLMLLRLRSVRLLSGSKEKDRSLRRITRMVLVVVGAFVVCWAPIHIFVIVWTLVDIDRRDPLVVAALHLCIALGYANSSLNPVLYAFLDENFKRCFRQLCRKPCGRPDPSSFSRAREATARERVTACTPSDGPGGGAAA
T4 sequence (P32245 whole entry): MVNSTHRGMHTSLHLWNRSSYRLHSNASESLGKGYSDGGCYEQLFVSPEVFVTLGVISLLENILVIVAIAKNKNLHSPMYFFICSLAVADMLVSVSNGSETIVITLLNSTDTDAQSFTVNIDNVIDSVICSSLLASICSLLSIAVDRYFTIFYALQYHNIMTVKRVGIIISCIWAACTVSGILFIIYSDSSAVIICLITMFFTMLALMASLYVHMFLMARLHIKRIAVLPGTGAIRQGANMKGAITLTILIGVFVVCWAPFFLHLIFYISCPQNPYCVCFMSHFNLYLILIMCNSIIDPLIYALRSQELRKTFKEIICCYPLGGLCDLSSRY
T3 sequence (P41968 whole entry): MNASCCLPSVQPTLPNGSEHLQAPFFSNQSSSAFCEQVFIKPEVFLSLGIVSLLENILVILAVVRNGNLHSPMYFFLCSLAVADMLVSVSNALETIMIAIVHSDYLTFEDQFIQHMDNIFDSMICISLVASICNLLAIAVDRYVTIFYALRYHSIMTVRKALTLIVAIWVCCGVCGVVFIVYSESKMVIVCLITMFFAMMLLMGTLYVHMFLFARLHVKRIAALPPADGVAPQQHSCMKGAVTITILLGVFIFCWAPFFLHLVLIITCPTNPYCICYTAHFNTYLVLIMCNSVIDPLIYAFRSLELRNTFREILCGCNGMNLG

Q: Which “A1: inhibition of radioligand binding” value (Human δ-opioid (DOP); human DOP membranes) does the source give for N=C(N)NCC(=O)NC1C(OCc2ccc(Cl)cc2)OC(COCc2ccc3ccccc3c2)C(O)C1OCc1ccc(-c2ccccc2)cc1 (stereo not shown) [compound 423] here?
A: − (“−” indicates less than 50% inhibition at 10 μM)

Q: What about the “A2: inhibition of radioligand binding” value (Human κ-Opioid (KOP); human KOP membranes) of the same molecule?
A: − (“−” indicates less than 50% inhibition at 10 μM)

Q: And the “A3: inhibition of radioligand binding” value (Human Melanocortin (MC3); human MC3 membranes)?
A: + (“+” indicates greater than 50% inhibition at 10 μM)

Q: What about the “A4: inhibition of radioligand binding” value (Human Melanocortin (MC4); human MC4 membranes) of the same molecule?
A: + (“+” indicates greater than 50% inhibition at 10 μM)

Q: And the “A5: inhibition of radioligand binding” value (Human melanocortin (MC5); human MC5 membranes)?
A: + (“+” indicates greater than 50% inhibition at 10 μM)

Q: What about the “A6: inhibition of radioligand binding” value ([1]; [125I]-S36057, human MCH1 membranes) of the same molecule?
A: − (“−” indicates less than 50% inhibition at 10 μM)

Q: And the “A7: inhibition of radioligand binding” value (Human μ-opioid (MOP); human MOP membranes)?
A: − (“−” indicates less than 50% inhibition at 10 μM)

Q: And the “A8: inhibition of radioligand binding” value (Human neurokinin (NK1); human NK1 membranes)?
A: + (“+” indicates greater than 50% inhibition at 10 μM)

Q: And the “A9: inhibition of radioligand binding” value ([2]; human NPY-Y1 membranes)?
A: − (“−” indicates less than 50% inhibition at 10 μM)

Q: What about the “A10: inhibition of radioligand binding” value (Human opioid (ORL1); human ORL1 membranes) of the same molecule?
A: + (“+” indicates greater than 50% inhibition at 10 μM)

Q: What about the “A11: inhibition of radioligand binding” value (Mouse urotensin (mUR2); mouse mUR2 membranes) of the same molecule?
A: − (“−” indicates less than 50% inhibition at 10 μM)

Q: What does the source list for CO[C@H]1[C@H](O)[C@@H](COCc2ccc(-c3ccccc3)cc2)OC(OCc2cccc(O)c2)[C@@H]1NC(=O)CNC(=N)N (stereo partly shown) [compound 162]?
A: A1 radioligand binding, percentage inhibition (Human δ-opioid (DOP)): − (“−” indicates less than 50% inhibition at 10 μM); A2 radioligand binding, percentage inhibition (Human κ-Opioid (KOP)): − (“−” indicates less than 50% inhibition at 10 μM); A3 radioligand binding, percentage inhibition (Human Melanocortin (MC3)): − (“−” indicates less than 50% inhibition at 10 μM); A4 radioligand binding, percentage inhibition (Human Melanocortin (MC4)): − (“−” indicates less than 50% inhibition at 10 μM); A5 radioligand binding, percentage inhibition (Human melanocortin (MC5)): − (“−” indicates less than 50% inhibition at 10 μM); A6 radioligand binding, percentage inhibition ([1]; [125I]-S36057): − (“−” indicates less than 50% inhibition at 10 μM); A7 radioligand binding, percentage inhibition (Human μ-opioid (MOP)): − (“−” indicates less than 50% inhibition at 10 μM); A8 radioligand binding, percentage inhibition (Human neurokinin (NK1)): + (“+” indicates greater than 50% inhibition at 10 μM); A9 radioligand binding, percentage inhibition [2]: − (“−” indicates less than 50% inhibition at 10 μM); A10 radioligand binding, percentage inhibition (Human opioid (ORL1)): − (“−” indicates less than 50% inhibition at 10 μM); A11 radioligand binding, percentage inhibition (Mouse urotensin (mUR2)): − (“−” indicates less than 50% inhibition at 10 μM)
